Laboratory results published in ChEMBL document CHEMBL1201862, “PubChem BioAssay data set” (2004).
Calls of active or inactive are those of the source. Rule as the data show it: active = AC50 of 100 µM or less and inactive = more.

Target: T1, DNA repair and recombination protein RAD54-like (Homo sapiens, UniProt Q92698)
T1 sequence (Q92698 whole entry): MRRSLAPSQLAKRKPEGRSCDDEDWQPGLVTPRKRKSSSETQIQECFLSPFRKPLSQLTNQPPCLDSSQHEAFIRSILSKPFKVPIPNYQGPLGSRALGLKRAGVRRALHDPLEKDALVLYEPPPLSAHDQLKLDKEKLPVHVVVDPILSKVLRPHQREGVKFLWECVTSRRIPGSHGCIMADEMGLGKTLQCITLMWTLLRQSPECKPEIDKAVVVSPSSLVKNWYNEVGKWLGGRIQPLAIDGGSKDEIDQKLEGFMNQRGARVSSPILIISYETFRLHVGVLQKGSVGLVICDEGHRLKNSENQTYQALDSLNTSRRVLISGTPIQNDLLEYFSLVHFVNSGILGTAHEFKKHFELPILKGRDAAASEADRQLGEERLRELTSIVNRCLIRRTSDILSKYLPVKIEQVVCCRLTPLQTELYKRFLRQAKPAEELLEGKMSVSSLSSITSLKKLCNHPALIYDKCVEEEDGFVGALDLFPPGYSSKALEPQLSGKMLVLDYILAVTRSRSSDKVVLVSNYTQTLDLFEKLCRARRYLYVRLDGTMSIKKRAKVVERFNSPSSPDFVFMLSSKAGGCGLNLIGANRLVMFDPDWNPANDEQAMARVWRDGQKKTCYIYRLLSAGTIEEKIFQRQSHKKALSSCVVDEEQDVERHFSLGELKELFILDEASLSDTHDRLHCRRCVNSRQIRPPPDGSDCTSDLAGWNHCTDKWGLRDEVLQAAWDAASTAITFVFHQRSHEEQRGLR
Experiment: RAD54 Holliday junction migration blockers – biochemical, fluorescence, cherry-picked samples, dose series, confirmation (AID 651657)
Format: functional

In the case of `CCOC(=O)c1c(-c2ccc(-c3ccccc3)cc2)csc1NC(=O)CNCCN(C)C`, the AC50 is reported as 68 µM (active).
